Data from US9856294B2, “Cyclodecapeptide compounds for use as drugs” (Commissariat A L'Energie Atomique Et Aux Energies …, priority 2010, dated 2018).
Like-named read-outs stand apart in the source and are kept apart here.

Legend:
[1] = log Kapp(Hg(II)) - log Kapp(Zn(II)), pH 7.4, 298 K
Source text: (§1) The selectivity between two metals M/M′ corresponds to the selectivity of the ligand for the metal M compared with that for the metal M′, this selectivity being equal to: log(Kapp(M)/Kapp(M′))=log Kapp(M)−log Kapp(M′)

[2] = pH 7.4, 298 K
Source text: These treatments must be followed for life, and must never be interrupted. They are based on chelating drugs which reduce the absorption of copper in the body, or which increase the excretion of this metal. The treatments must be subject to periodic monitoring, so as to detect the appearance of undesirable side effects.
as §1

[3] = log Kapp(Cu(II)) - log Kapp(Zn(II))

SMILES	Selectivity Hg/Zn [1]	Selectivity Cu/Zn [2, 3]	Selectivity Cu/Zn ([2]; log Kapp(Cu(I)) - log Kapp(Zn(II)))
OCC(S)CS (stereo not shown) [BAL, 2,3-dimercaptopropanol]	12.2	–	–
O=C(O)CN(CCN(CC(=O)O)CC(=O)O)CC(=O)O [EDTA, ethylenediaminetetraacetic acid]	5	2.3	–
CC(C)(S)[C@@H](N)C(=O)O [Pen, D-penicillamine]	9.1	–	2.5
NCCNCCNCCN [Trien, triethylenetetramine]	12.7	8.1	–
